Data: patent US20120178671A1, “INHIBITION OF NFK-B MEDIATED VIRUS REPLICATION WITH SPECIFIC OLIGOSACCHARIDES” (N.V. Nutricia, priority 2009, published 2012)
“Also recorded” adds a separate entry of the source. Like-named read-outs stand apart in the source and are kept apart here.

Tests used:
Format in all cases: cell-based
[1] = tested on: NFκB activation; assay: NFκB luciferase reporter in HEK293 cells with EPA, pAOS and L-cysteine, TNF-α induced; conditions: HEK293-NFκB-Luc cells stimulated with TNFα; for activity at 1000 µM: Homo sapiens, read-out: Inhibition of NFκB activation, average
Experimental: Methods: HEK293 cells were stably transfected with a NFκB luciferase reporter gene construct. One day after cell plating EPA (0, 25 μM) was added at t=0 h. pAOS (0, 1, 2 and 3 g/L) were added at t=96 h and L-cysteine (0, 1 mM) at t=120 h. NFκB activation was induced by 2.5 h incubation with TNF-α. Luciferase activity was subsequently assessed at t=122.5 h. As a control for cell viability cellular ATP levels were determined.

[2] = tested on: NF-κB; assay: Screening of oligosaccharides NFK-B inhibiting activity; conditions: screening of (oligo)saccharides, Yes/No
From the text: It is hypothesized that the main site of action of the specific nutritional oligosaccharides as mentioned in example 1, is the intestine. […] Screening of oligosaccharides NFK-B inhibiting activity

[3] = tested on: TNF-α-mediated NF-κB activation; assay: NF-κB luciferase reporter in HEK293 cells, TNF-α induced (pAOS with NAC or L-cysteine); conditions: pAOS pre-incubated, NAC or L-cysteine added with TNF-α for 2.5 hr
Experimental: FIG. 2. NFkappaB response in HEK293 cells after 22.5 hr. incubation with AOS and NAC (A) or L-cysteine (B) with TNF-α for 2.5 hr. […] TNF-α was added to induce NF-κB activation. citrus pectin oligosaccharide (pAOS) was added 18 h prior to TNF-α addition (t=18 h). As a cystein source, NAC was added at the same time as TNF-α. At t=20.5 the production of luciferase was measured by chemiluminescence.

[4] = tested on: HEK293 cells; assay: Glutathione in HEK293 cells incubated with pAOS and NAC; conditions: AOS 22.5 hr (18 h in Example 4), NAC 2.5 hr, compared with TNF-α-stimulated cells (control)
Experimental: To determine this, HEK293 cells were incubated with AOS for 22.5 hr. and NAC in combination with TNF-α for 2.5 hr. Obtained GSH levels were corrected for cell numbers and results were compared levels with TNF-α-stimulated cells (control). […] The combination of NAC and AOS enhance GSH production up to 278% compared with control. Data sets were compared with their baseline controls (0 mg/ml AOS in combination with its specific concentration of NAC or L-cysteine) and presented in example 2. High concentrations of AOS and NAC result in a relative stronger increase in GSH levels.
Methods: HEK293 cells were incubated with citrus pectin oligosaccharide (pAOS) for 18 h, then as a cystein source, NAC was added and incubated for 2.5 h. After the incubation period, the cells were centrifugated (2000 rpm for 5 min). Medium was discarded and taken up into ice-cold perchloric acid (0.4 M) and resuspended. Samples were then centrifuged for 10 min. at 13.000 rpm. Supernatant was collected and used for glutathione measurements. Total glutathione measurements were performed in 10 or 20 times diluted samples.

## N[C@@H](CS)C(=O)O [L-cysteine]
[1]; HEK293, AOS 0 mg/ml, EPA 25 uM and/or L-cysteine 1 mM as labelled, control without additions = 100
  activity at 1000 µM: 80%
[1]; HEK293, AOS 1 mg/ml, alone or together with the labelled EPA 25 uM and/or L-cysteine 1 mM, control = 100
  activity at 1000 µM: 55%
[1]; HEK293, AOS 2 mg/ml, alone or together with the labelled EPA 25 uM and/or L-cysteine 1 mM, control = 100
  activity at 1000 µM: 32%
[1]; HEK293, AOS 3 mg/ml, alone or together with the labelled EPA 25 uM and/or L-cysteine 1 mM, control = 100
  activity at 1000 µM: 24%

## OC[C@H]1O[C@@](CO)(OC[C@@]2(OC[C@@]3(OC[C@@]4(O[C@H]5O[C@H](CO)[C@@H](O)[C@H](O)[C@H]5O)O[C@H](CO)[C@@H](O)[C@@H]4O)O[C@H](CO)[C@@H](O)[C@@H]3O)O[C@H](CO)[C@@H](O)[C@@H]2O)[C@@H](O)[C@@H]1O [1,1,1-kestopentaose]
[2]
  NFκB inhibition: No

## OC[C@H]1O[C@@](CO)(OC[C@@]2(OC[C@@]3(O[C@H]4O[C@H](CO)[C@@H](O)[C@H](O)[C@H]4O)O[C@H](CO)[C@@H](O)[C@@H]3O)O[C@H](CO)[C@@H](O)[C@@H]2O)[C@@H](O)[C@@H]1O [1,1-kestotetraose]
[2]
  NFκB inhibition: No

## CC/C=C\C/C=C\C/C=C\C/C=C\C/C=C\CCCC(=O)O [EPA, eicosapentaenoic acid]
[1]; AOS 0 mg/ml, EPA 25 uM and/or L-cysteine 1 mM as labelled, control without additions = 100
  Inhibition of NFκB activation, average: 113
[1]; AOS 1 mg/ml, alone or together with the labelled EPA 25 uM and/or L-cysteine 1 mM, control = 100
  Inhibition of NFκB activation, average: 62
[1]; AOS 2 mg/ml, alone or together with the labelled EPA 25 uM and/or L-cysteine 1 mM, control = 100
  Inhibition of NFκB activation, average: 29
[1]; AOS 3 mg/ml, alone or together with the labelled EPA 25 uM and/or L-cysteine 1 mM, control = 100
  Inhibition of NFκB activation, average: 8

## O=C(O)[C@H]1O[C@H](O[C@@H]2[C@H](O)[C@@H](O)[C@@H](O[C@@H]3[C@H](O)[C@@H](O)C(O)O[C@@H]3C(=O)O)O[C@@H]2C(=O)O)[C@H](O)[C@@H](O)[C@H]1O (stereo partly drawn) [Trigalacturonic acid]
[2]
  NFκB inhibition: Yes

## O=C[C@H](O)[C@@H](O)[C@@H](O)[C@H](O)C(=O)O [Galacturonic acid]
[2]
  NFκB inhibition: No

## CC(=O)N[C@@H](CS)C(=O)O [NAC, N-acetyl cysteine]
[3]
  TNF-α-mediated NF-κB activation, result in words: capable of blocking NF-κB activation; also recorded: inhibited TNF-α-mediated NF-κB activation dose dependently
[4]
  GSH (glutathione) levels, result in words: enhances GSH levels in a concentration of 10 mM

## OC[C@H]1O[C@H](OC[C@H]2OC(O)(CO)[C@@H](O)[C@@H]2O)[C@H](O)[C@@H](O)[C@@H]1O (stereo partly drawn) [Palatinose]
[2]
  NFκB inhibition: No

## OC[C@H]1O[C@@](CO)(OC[C@@]2(O[C@H]3O[C@H](CO)[C@@H](O)[C@H](O)[C@H]3O)O[C@H](CO)[C@@H](O)[C@@H]2O)[C@@H](O)[C@@H]1O [1-kestose]
[2]
  NFκB inhibition: No

## O=C(O)[C@H]1O[C@H](O[C@@H]2[C@H](O)[C@@H](O)[C@@H](O)O[C@@H]2C(=O)O)[C@H](O)[C@@H](O)[C@H]1O [Digalacturonic acid]
[2]
  NFκB inhibition: Yes

## O.OC[C@H]1O[C@H](OC[C@H]2O[C@H](OC[C@H]3O[C@H](O[C@]4(CO)O[C@H](CO)[C@@H](O)[C@@H]4O)[C@H](O)[C@@H](O)[C@@H]3O)[C@H](O)[C@@H](O)[C@H]2O)[C@H](O)[C@@H](O)[C@H]1O [Stachyose hydrate]
[2]
  NFκB inhibition: No
